Measured values reported in the NIST ThermoML archive (doi:10.1016/j.jct.2018.02.016).
Numbers after ± are expanded uncertainties.

Details: Gas chromatography

C=C1CC[C@@]23C[C@@H]1C(C)(C)[C@@H]2CC[C@H]3C [beta-cedrene]
Metastable liquid
Details | vapor or sublimation pressure [kPa]
298.15 K | 0.0031
310 K | 0.0081
320 K | 0.017
330 K | 0.035 ± 0.017
340 K | 0.067 ± 0.03
350 K | 0.12 ± 0.051
360 K | 0.21 ± 0.081
370 K | 0.37 ± 0.12
380 K | 0.61 ± 0.17
390 K | 0.99 ± 0.23
400 K | 1.5 ± 0.3
410 K | 2.3 ± 0.38
420 K | 3.5 ± 0.49
430 K | 5.1 ± 0.65
440 K | 7.3 ± 0.89
533.3 K | 101.3 ± 10

C1C2CC3CC1CC(C2)C3 [adamantane]
Liquid
Details | vapor or sublimation pressure [kPa]
298.15 K | 0.13
310 K | 0.26
320 K | 0.46
330 K | 0.77
340 K | 1.3
350 K | 2
360 K | 3.1 ± 1.4
370 K | 4.6 ± 1.8
380 K | 6.8 ± 2.3
390 K | 9.8 ± 2.9
400 K | 14 ± 3
410 K | 19 ± 4
420 K | 26 ± 5
430 K | 35 ± 5
440 K | 46 ± 6
545 K | 460 ± 46
555 K | 550 ± 55
565 K | 650 ± 65
575 K | 760 ± 76

C1C2CC3C4CC5CC(C14)C(C2)C3C5 [pentacyclo[7.3.1.1(4,12).0(2,7).0(6,11)]tetradecane]
Metastable liquid
Details | vapor or sublimation pressure [kPa]
298.15 K | 0.0016
310 K | 0.0043
320 K | 0.0091
330 K | 0.018
340 K | 0.036
350 K | 0.066
360 K | 0.12
370 K | 0.2
380 K | 0.34
390 K | 0.55
400 K | 0.87 ± 0.42
410 K | 1.3 ± 0.61
420 K | 2 ± 0.83
430 K | 3 ± 1.1
440 K | 4.3 ± 1.5
516 K | 44.3 ± 4.4
526 K | 56 ± 5.6
536 K | 71 ± 7.1
546 K | 89 ± 8.9

CC1=CC[C@@]23C[C@@H]1C(C)(C)[C@@H]2CC[C@H]3C [alpha-cedrene]
Metastable liquid
Details | vapor or sublimation pressure [kPa]
298.15 K | 0.0031
310 K | 0.0081
320 K | 0.017
330 K | 0.035 ± 0.017
340 K | 0.067 ± 0.03
350 K | 0.12 ± 0.051
360 K | 0.22 ± 0.082
370 K | 0.37 ± 0.12
380 K | 0.61 ± 0.17
390 K | 0.99 ± 0.23
400 K | 1.5 ± 0.3
410 K | 2.4 ± 0.38
420 K | 3.5 ± 0.49
430 K | 5.1 ± 0.65
440 K | 7.3 ± 0.89
533.2 K | 101.3 ± 10
